In PubChem BioAssay (NCI):
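A five-concentration, 48-hour dose response in 96-well plates underlies each endpoint, interpolated linearly between surrounding concentrations. GI50 marks 50% less growth. At the TGI there is no net growth.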

What was measured:
Test in all cases: NCI tumour cell line growth inhibition, 48 h
[1] = tested on: SNB-19 CNS
[2] = tested on: HOP-62 NSCLC
[3] = tested on: OVCAR-3 ovarian
[4] = tested on: MDA-MB-231 breast
[5] = tested on: SK-MEL-5 melanoma
[6] = tested on: A498 renal
[7] = tested on: BT-549 breast
[8] = tested on: SR leukemia
[9] = tested on: DU-145 prostate
[10] = tested on: MCF7 breast

## C=C1C(=O)OC2C1C(OC(=O)/C(C)=C/C)CC(O)(CCl)C1C(O)C=C(C)C21O (configuration not stated)
[1]
  TGI: > 64.2 µM
[2]
  TGI: > 67.2 µM
[3]
  TGI: 27.7 µM
[4]
  TGI: 30.9 µM
[5]
  TGI: 27.7 µM
[6]
  TGI: > 60.1 µM
[7]
  TGI: 23.4 µM
[8]
  TGI: 29.2 µM
[9]
  TGI: 30.7 µM
[10]
  TGI: 16.7 µM

## O=C1/C=C/[C@@H](O)[C@@H]2C[C@@H](O)C[C@H]2/C=C/CCC[C@H](CCc2ccc3ncccc3c2)O1
[1]
  GI50: 0.4 µM
  TGI: > 100 µM
[2]
  GI50: 0.317 µM
[3]
  GI50: 0.518 µM
  TGI: > 100 µM
[4]
  GI50: 0.167 µM
  TGI: 0.373 µM
[5]
  GI50: 0.0567 µM
  TGI: 0.162 µM
[6]
  GI50: 0.1 µM
[7]
  GI50: 0.402 µM
  TGI: 16.2 µM
[8]
  GI50: 0.296 µM
  TGI: 6.5 µM
[9]
  GI50: 0.564 µM
  TGI: > 100 µM
[10]
  GI50: 0.27 µM
  TGI: > 100 µM

## O=C1Nc2cc(-c3cccc(O)c3)ccc2/C1=C/c1ccc[nH]1
[1]
  GI50: 3.5 µM
  TGI: 15.1 µM
[2]
  GI50: 2.3 µM
  TGI: 8.55 µM
[3]
  GI50: 1.43 µM
  TGI: 5.85 µM
[4]
  GI50: 0.163 µM
  TGI: 7.39 µM
[5]
  GI50: 1.6 µM
  TGI: 3.32 µM
[6]
  GI50: 1.48 µM
  TGI: 4.1 µM
[7]
  GI50: 0.506 µM
  TGI: 3.96 µM
[8]
  GI50: 0.0282 µM
  TGI: 1.82 µM
[9]
  GI50: 3.16 µM
  TGI: 23.6 µM
[10]
  GI50: 0.257 µM
  TGI: 2.44 µM

## CCCCCCCCCCCCCCCCCCNCc1ccc(Cl)cc1
[1]
  GI50: 3.31 µM
  TGI: 12 µM
[2]
  GI50: 3.17 µM
  TGI: 12.8 µM
[3]
  GI50: 3.07 µM
  TGI: 11 µM
[4]
  GI50: 1.84 µM
  TGI: 4.3 µM
[5]
  GI50: 15.7 µM
  TGI: 30.3 µM
[6]
  GI50: 14 µM
  TGI: 31.9 µM
[7]
  GI50: 17.3 µM
  TGI: 42.2 µM
[8]
  GI50: 2.08 µM
  TGI: 6.58 µM
[9]
  GI50: 2.06 µM
  TGI: 4.44 µM
[10]
  GI50: 2.93 µM
  TGI: 11.5 µM

## Nc1ccccc1C#C/C=C\C#CC#C/C=C\C#Cc1ccccc1N
[1]
  GI50: 16.2 µM
  TGI: 64.8 µM
[2]
  GI50: 10.5 µM
  TGI: 28.1 µM
[3]
  GI50: 2.78 µM
  TGI: 14 µM
[4]
  GI50: 1.54 µM
  TGI: 14.8 µM
[5]
  GI50: 8.43 µM
  TGI: 22.9 µM
[6]
  GI50: 5.36 µM
  TGI: 20.6 µM
[7]
  GI50: 5.03 µM
  TGI: 25.9 µM
[8]
  GI50: 1.42 µM
  TGI: 7 µM
[9]
  GI50: 2.97 µM
  TGI: 13.5 µM
[10]
  GI50: 4.6 µM
  TGI: > 100 µM

## C[N+](C)(C)CC1CCC(C[N+](C)(C)C)C1=O (configuration not stated)
[1]
  TGI: 33.5 µM
[2]
  TGI: 36.1 µM
[3]
  TGI: 5.32 µM
[4]
  TGI: 41.3 µM
[5]
  TGI: 23.8 µM
[6]
  TGI: 21.9 µM
[7]
  TGI: 30.7 µM
[9]
  TGI: 30.5 µM
[10]
  TGI: 6.05 µM

## C/C=C/C/C=C/[C@H](C)C[C@H](O)[C@@H]1C[C@@H]2O[C@H]2/C=C/[C@@H]2OC(C)(C)O[C@H]2/C=C/C[C@H](C)CC(=O)O1
[1]
  GI50: 21.7 µM
  TGI: > 100 µM
[2]
  GI50: 15.1 µM
  TGI: 90.2 µM
[3]
  GI50: 12.4 µM
  TGI: > 100 µM
[4]
  GI50: 36.1 µM
  TGI: > 100 µM
[5]
  GI50: 4.39 µM
  TGI: 44 µM
[6]
  GI50: > 100 µM
  TGI: > 100 µM
[7]
  GI50: 16.3 µM
  TGI: > 100 µM
[8]
  GI50: 8.08 µM
  TGI: > 100 µM
[9]
  GI50: 12.3 µM
  TGI: > 100 µM
[10]
  GI50: 25.5 µM
  TGI: > 100 µM
